Measurements taken from PMC11831560, “Development of the Pyrido[2,3-d]pyrimidin-7(8H)-one Scaffold toward Potent and Selective NUAK1 Inhibitors” (ACS Medicinal Chemistry Letters, 2025).
“And” between values parts separate entries of the source, which are not always exact repeats. Equal entries are not always repeated.

Key:
MDR1 (P-gp) = experiment: MDR1-MDCK permeability (bi-directional); format: in vitro ADME, canine; conditions: dog; for efflux ratio at 1 h, 10 µM / efflux ratio at 60 min, 10 µM: MDCK-MDR1, ratio of B-A to A-B permeabilities, read-out: MDCK ER (efflux ratio); for Papp at 60 min, 10 µM: MDR1-MDCK
Text: (§1) All single point assay determinations carried out in duplicate.

Plasma protein binding = format: in vitro ADME; conditions: mouse plasma, read-out: PPB Fu
Text: as §1

Brain protein binding = format: in vitro ADME; conditions: mouse brain tissue, read-out: BPB Fu
Text: as §1

TBK1 = TBK1 (Homo sapiens, UniProt Q9UHD2); experiment: Kinase panel radiometric filter binding (33P-ATP); format: biochemical
Method: (§2) Table S4: AMPKA kinase activity data (ADP-Glo assay)
(§3) Compound pIC50 (Fold selectivity
(§4) Table S5. Kinase selectivity screening for 9 and 24 at 1 µM against a general kinase panel of 140 targets
(§5) in radiometric filter binding assay using 33P-γ−ATP at the MRC PPU International Centre for Kinase
(§6) Profiling, University of Dundee. pIC50 values were determined for compounds with <20% activity
(§7) Kinase activity s.d. pIC50 activity s.d. pIC50

TLK1 = TLK1 (Homo sapiens, UniProt Q9UKI8); experiment: Kinase panel radiometric filter binding (33P-ATP); format: biochemical
Method: as §2, §3, §4, §5, §6, §7

p38g MAPK = p38g MAPK (Homo sapiens, UniProt P53778); experiment: Kinase panel radiometric filter binding (33P-ATP); format: biochemical
Method: as §2, §3, §4, §5, §6, §7

IR = IR (Homo sapiens, UniProt P06213); experiment: Kinase panel radiometric filter binding (33P-ATP); format: biochemical; set-up: % activity remaining: dose or concentration left out as unconfirmed; conditions: for % activity remaining: IR
Method: as §2, §3, §4, §5, §6, §7

in vivo = conditions: male, CD-1, mouse, ip, 5 mg/kg
Method: (§8) To investigate the effect of increasing mouse microsomal stability on in vivo half-lives, 9, 10 and 24 were coadministered with 3 in a mouse PK cassette (5 mgkg^–1, I.P.) (Table 5).
ADMET and PK experimental methods
(§9) Microsomal stability: analysis was performed by Cyprotex Discovery. Briefly, test compounds in
(§10) microsomes (0.5 mg protein/mL) in the presence of NADPH (1 mM) at 37 °C. Aliquots were taken at
(§11) generic LC-MS/MS conditions for compound remaining, allowing the determination of the half-life for
(§12) MDR1-MDCK Permeability (bi-directional): was performed by Cyprotex Discovery. Briefly,
(§13) compounds were administered at 10 µM (1% DMSO final) to the apical or basolateral side of a
(§14) confluent monolayer of MDR1- MDCK cells, then incubated at 37 °C for 60 minutes before appearance
(§15) on the opposite side of the monolayer was determined LC-MS/MS. The efflux ratio (ER) is calculated
(§16) from the ratio of B-A to A-B permeabilities.
(§17) Plasma protein binding: was performed by ChemPartner Co. Ltd. Briefly, compounds in DMSO (1
(§18) µM, 0.2% DMSO final) were added to mouse plasma or brain tissue and dialysed against buffer for 5
(§19) hrs at 37 °C. The compound concentration in each of the plasma and buffer compartments was
(§20) determined by mass spectrometry and used to calculate the percentage compound bound.
(§21) Pharmacokinetic analysis: was performed by ChemPartner Co. Ltd. Male CD-1 mice (N=3 per
(§22) timepoint) were intraperitoneally dosed at 5 mg/kg, as a cassette of five compounds, formulated in 10%
(§23) DMSO, 10% Solutol HS 15, 80% (50 mM citrate buffer pH3.0) at 0.5 mg/mL. At the designated time
(§24) points a blood sample was collected from the facial vein into K2EDTA tubes, and plasma separated by
(§25) centrifugation. Mice were euthanised by CO2 inhalation and brains were dissected and homogenised.
(§26) Compound levels were quantified by LC-MS/MS and PK parameters estimated by a non-compartmental
model using WinNonlin 8.2.

NUAK1 = biological target: T1, NUAK1 (Homo sapiens, UniProt O60285); experiment: ADP-Glo biochemical assay NUAK1; set-up: purchased MRC PPU; conditions: for NUAK1 pIC50 / IC50: ADP-Glo assay; for IC50: read-out: NUAK1 pIC50 (converted)
T1 sequence (O60285 1-661): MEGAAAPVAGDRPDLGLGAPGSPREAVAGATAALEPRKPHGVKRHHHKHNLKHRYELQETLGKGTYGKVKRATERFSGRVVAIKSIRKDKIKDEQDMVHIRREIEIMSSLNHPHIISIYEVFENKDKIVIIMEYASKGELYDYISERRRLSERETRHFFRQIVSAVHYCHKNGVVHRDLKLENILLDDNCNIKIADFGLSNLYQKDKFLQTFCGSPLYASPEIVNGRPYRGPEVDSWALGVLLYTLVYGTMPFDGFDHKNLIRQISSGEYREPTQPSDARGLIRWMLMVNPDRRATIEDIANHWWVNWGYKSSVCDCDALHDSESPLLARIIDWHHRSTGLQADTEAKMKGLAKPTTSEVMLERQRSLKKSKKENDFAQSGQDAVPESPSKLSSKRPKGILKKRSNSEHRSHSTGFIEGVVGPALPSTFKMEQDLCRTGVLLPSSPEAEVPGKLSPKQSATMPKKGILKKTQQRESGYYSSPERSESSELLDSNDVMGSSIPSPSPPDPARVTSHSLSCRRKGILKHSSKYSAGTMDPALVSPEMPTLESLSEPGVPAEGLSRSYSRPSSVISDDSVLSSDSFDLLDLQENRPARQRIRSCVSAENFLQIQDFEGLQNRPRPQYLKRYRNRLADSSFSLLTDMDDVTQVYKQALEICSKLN
Method: Biological experimental procedures
ADP-Glo biochemical assays
Protein kinase activity in the presence of inhibitor compounds was determined by ADP-Glo assay (Promega), as previously described.1,2 Compounds were serialised using a Labcyte Echo 520 and transferred to 384 well plates (Greiner 784201) followed by the addition 5 µL of substrate containing peptide and ATP at Km in buffer (see Table S6). 5 µL of purified protein was added and the plate was incubated for 60 minutes at room temperature (ng/well; see Table S6). 3 µL of assay mixture was transferred using an Integra Viaflo384 into a white low volume plate (Greiner 781904) prior to the addition of 3 µL of ADP-Glo Reagent™ for a further 40 minute incubation. After incubation with 6 µL of Kinase Detection Reagent for 30 minutes, plate luminescence was read (Pherastar FSX, BMG […]
30 mM HEPES pH7.4, 3 mM MgCl2, 3 mM MnCl2, 1.2 mM DTT, 0.01% CHAPS
Table S6: Conditions for protein kinase ADP-Glo assays
ATP AT Peptide Peptide Enzyme Enzyme Assay Buffe Min.
Protein conc. P Peptide name conc. supplier amount supplier vol. r na […]
NUAK1 µM µM Sakamototide 50 µM Merck 6.7 ng PPU 10 µl A 6
A µM µM Sakamototide 100 µM Merck 1 ng PPU 10 µl B 2 […]
aMin. n: Minimum number of technical replicates per compound

CDK2-Cyclin A = CDK2-Cyclin A (Homo sapiens, UniProt P24941); experiment: Z′-LYTE screening assay (Thermo Fisher); format: biochemical; set-up: purchased Thermo Fisher Scientific; conditions: single point at 1 μM; read-out: CDK2 % Inh.
Text: Activity pIC50 values and standard error of the mean (SEM) were estimated using a 4-parameter fit (Dotmatics). The SEM for all reported data was 0.2 or lower. See Experimental Procedures for minimum number of replicates per compound. Each experiment included a Standard compound whose pIC50 value was compared to a quality control chart. If the Standard pIC50 value fell outside the range of pIC50 +/-3 standard deviation, then the experiment was invalidated.
CDK2/cyclin A: Z′-LYTE™ screening assay performed by Thermo Fisher Scientific: The 2X CDK2/cyclin A / Ser/Thr 12 mixture is prepared in 50 mM HEPES pH 7.5, 0.01% BRIJ-35, 10 mM MgCl2, 1 mM EGTA. The final 10 µL Kinase Reaction consists of 1.22 - 10.3 ng CDK2/cyclin A and 2 µM Ser/Thr 12 in 50 mM HEPES pH 7.5, 0.01% BRIJ-35, 10 mM MgCl2, 1 mM EGTA. After the 1 hour Kinase Reaction incubation, 5 µL of a 1:4096 dilution of Development Reagent A is added. […]

[1] = Mouse PK cassette (5 mg/kg, I.P.); conditions: for Kp uu at 0.5 h: brain / plasma (unbound); for Kp at 0.5 h: brain / plasma; for AUCinf / Plasma t1/2: mouse, I.P., cassette
Method: as §8
ADMET and PK experimental methods
as §9, §10, §11, §12, §13, §14, §15, §16, §17, §18, §19, §20, §21, §22, §23, §24, §25, §26
model using WinNonlin 8.2.

Chain of IR (P06213 28-1382): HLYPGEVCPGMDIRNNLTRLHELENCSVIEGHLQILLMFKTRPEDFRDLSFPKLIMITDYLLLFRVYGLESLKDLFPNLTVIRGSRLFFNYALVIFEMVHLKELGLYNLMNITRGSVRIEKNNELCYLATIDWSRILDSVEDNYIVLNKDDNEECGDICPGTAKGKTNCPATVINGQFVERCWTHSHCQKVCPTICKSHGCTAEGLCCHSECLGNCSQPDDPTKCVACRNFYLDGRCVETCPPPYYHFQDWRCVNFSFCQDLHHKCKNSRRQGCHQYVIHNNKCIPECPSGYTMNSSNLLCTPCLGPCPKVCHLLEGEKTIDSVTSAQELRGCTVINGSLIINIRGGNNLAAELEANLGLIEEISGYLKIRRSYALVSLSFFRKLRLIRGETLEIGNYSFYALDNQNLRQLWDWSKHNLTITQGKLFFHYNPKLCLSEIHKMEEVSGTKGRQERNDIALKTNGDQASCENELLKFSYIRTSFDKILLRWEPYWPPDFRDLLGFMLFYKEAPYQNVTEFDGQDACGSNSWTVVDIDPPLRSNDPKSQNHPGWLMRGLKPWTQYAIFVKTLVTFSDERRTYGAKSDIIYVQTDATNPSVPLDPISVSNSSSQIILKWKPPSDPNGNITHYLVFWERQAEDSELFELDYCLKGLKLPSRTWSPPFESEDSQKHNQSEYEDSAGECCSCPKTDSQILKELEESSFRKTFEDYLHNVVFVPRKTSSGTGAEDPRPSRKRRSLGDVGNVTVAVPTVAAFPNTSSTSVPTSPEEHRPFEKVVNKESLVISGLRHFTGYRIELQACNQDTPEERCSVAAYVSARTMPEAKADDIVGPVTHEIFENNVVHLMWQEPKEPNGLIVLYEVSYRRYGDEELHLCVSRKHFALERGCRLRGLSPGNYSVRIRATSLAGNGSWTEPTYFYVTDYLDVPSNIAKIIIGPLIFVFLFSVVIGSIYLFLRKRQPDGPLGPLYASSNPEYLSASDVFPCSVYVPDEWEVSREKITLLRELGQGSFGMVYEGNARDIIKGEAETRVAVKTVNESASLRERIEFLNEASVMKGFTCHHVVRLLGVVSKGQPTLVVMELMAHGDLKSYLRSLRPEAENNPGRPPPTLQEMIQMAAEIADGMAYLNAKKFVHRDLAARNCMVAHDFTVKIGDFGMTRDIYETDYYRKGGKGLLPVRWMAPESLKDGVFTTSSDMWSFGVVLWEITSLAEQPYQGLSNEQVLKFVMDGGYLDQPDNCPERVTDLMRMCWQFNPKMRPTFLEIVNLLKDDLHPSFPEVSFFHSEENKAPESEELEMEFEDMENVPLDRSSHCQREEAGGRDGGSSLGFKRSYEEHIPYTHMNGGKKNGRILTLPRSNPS
Chain of TLK1 (Q9UKI8 whole entry): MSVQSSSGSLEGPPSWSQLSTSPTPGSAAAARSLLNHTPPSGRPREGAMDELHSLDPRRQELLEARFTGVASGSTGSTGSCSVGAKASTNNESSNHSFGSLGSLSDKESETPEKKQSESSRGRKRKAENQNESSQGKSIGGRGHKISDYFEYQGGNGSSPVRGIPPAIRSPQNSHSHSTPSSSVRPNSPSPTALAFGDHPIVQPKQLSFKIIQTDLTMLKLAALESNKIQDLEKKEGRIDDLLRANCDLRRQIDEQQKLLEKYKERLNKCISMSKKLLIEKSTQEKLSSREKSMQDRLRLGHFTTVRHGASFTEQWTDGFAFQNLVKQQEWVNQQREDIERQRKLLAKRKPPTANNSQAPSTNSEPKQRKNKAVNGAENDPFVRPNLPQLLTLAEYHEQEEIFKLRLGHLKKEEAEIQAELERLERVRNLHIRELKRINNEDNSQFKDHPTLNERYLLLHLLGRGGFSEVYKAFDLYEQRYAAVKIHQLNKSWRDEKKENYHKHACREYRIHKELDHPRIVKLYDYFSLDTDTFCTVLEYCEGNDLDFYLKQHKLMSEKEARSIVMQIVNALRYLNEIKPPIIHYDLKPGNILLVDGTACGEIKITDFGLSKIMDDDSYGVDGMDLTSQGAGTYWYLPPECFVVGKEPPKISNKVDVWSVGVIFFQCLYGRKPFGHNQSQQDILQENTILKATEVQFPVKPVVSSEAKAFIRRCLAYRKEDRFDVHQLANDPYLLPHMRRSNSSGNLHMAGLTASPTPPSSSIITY
Chain of TBK1 (Q9UHD2 whole entry): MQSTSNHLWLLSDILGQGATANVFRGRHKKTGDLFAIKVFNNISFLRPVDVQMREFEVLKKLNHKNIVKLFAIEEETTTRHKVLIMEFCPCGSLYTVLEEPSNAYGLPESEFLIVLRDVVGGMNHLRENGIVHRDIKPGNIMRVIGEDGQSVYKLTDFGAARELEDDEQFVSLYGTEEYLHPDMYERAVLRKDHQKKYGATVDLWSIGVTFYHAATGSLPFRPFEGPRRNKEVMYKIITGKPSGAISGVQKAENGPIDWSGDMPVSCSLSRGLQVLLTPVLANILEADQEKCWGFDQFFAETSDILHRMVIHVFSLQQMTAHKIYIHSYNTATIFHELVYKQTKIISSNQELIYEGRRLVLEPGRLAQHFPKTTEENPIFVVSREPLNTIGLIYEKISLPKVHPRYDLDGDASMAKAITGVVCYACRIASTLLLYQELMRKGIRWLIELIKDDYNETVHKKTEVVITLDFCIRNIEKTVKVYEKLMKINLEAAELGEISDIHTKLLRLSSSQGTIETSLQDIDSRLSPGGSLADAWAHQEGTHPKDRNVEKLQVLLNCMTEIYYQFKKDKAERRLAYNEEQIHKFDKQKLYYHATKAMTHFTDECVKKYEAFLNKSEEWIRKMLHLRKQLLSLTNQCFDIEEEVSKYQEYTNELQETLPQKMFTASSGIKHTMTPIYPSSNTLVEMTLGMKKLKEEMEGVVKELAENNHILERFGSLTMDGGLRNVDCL
Chain of p38g MAPK (P53778 whole entry): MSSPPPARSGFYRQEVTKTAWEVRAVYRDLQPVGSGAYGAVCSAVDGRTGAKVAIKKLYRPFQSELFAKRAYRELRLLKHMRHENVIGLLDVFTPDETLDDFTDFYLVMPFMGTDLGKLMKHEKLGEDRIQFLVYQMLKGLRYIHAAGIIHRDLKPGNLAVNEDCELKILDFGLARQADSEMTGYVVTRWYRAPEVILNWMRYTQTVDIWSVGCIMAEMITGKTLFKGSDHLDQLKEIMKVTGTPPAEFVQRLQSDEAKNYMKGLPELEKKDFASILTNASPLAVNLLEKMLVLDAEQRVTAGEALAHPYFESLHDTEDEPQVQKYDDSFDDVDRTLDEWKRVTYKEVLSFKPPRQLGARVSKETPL

Structure (SMILES): CN1C2CC1CN(c1ccc(Nc3ncc4ccn(CC5CCOCC5)c4n3)cc1)C2 [Compound 24]
- efflux ratio at 1 h, 10 µM (MDR1 (P-gp)): 71
- efflux ratio at 60 min, 10 µM (MDR1 (P-gp)): 70.8
- Papp at 60 min, 10 µM (MDR1 (P-gp)): 1.05 ×10⁻⁶ cm/s
- fraction unbound at 5 h, 1 µM (Plasma protein binding): 0.152
- fraction unbound at 5 h, 1 µM (Brain protein binding): 0.09
- % activity remaining (TBK1): 41%
- % activity remaining (TLK1): 86%
- % activity remaining (p38g MAPK): 92%
- % activity remaining (IR): 87%
- concentration at 30 min (in vivo): 220 ng/mL
- concentration at 2 h (in vivo): 26.9 ng/mL
- NUAK1 pIC50 (NUAK1): 8.5
- inhibition at 1 µM (CDK2-Cyclin A): 29%
- Kp uu at 0.5 h ([1]; male, CD-1, mouse, ip): 0.52
- Kp at 0.5 h ([1]; male, CD-1, mouse, ip): 0.9
- AUCinf [1]: 365 ng·h/mL
- Plasma t1/2 [1]: 42 min

Structure (SMILES): CC(C)N1CCN(c2ccc(Nc3ncc4ccn(CC5CCCO5)c4n3)cc2)CC1 (stereo not shown) [Compound 27]
- fraction unbound at 5 h, 1 µM (Brain protein binding): 0.039
- NUAK1 pIC50 (NUAK1): 8.5
- IC50 (NUAK1): 3.39 nM

Structure (SMILES): Cc1cc(=O)n(C2CCCC2)c2nc(Nc3ccc(N4CCN(C)CC4)cc3)ncc12 [Compound 4]
- NUAK1 pIC50 (NUAK1): 8.3
- IC50 (NUAK1): 4.57 nM
- inhibition at 1 µM (CDK2-Cyclin A): 57%

Structure (SMILES): Cc1cc(=O)n(C2CCCC2)c2nc(Nc3ccc(N4CC5CC(C4)N5C)cc3)ncc12 [Compound 9]
- efflux ratio at 1 h, 10 µM (MDR1 (P-gp)): 4.8
- Papp at 60 min, 10 µM (MDR1 (P-gp)): 1.01 ×10⁻⁶ cm/s
- fraction unbound at 5 h, 1 µM (Plasma protein binding): 0.011
- fraction unbound at 5 h, 1 µM (Brain protein binding): 0.006
- % activity remaining (TBK1): 66%
- % activity remaining (TLK1): 59%
- % activity remaining (p38g MAPK): 97%
- % activity remaining (IR): 14%
- IC50 (IR; radiometric filter binding panel, read-out: IR pIC50 (converted)): 263 nM
- concentration at 30 min (in vivo): 573 ng/mL
- concentration at 2 h (in vivo): 176 ng/mL
- NUAK1 pIC50 (NUAK1): 8.3
- IC50 (NUAK1): 5.5 nM
- inhibition at 1 µM (CDK2-Cyclin A): 38%
- Kp uu at 0.5 h ([1]; male, CD-1, mouse, ip): 0.4
- Kp at 0.5 h ([1]; male, CD-1, mouse, ip): 0.8
- AUCinf [1]: 1358 ng·h/mL
- Plasma t1/2 [1]: 54 min

Structure (SMILES): CN1C2CC1CN(c1ccc(Nc3ncc4ccn(CC5CCCO5)c4n3)cc1)C2 (stereo not shown) [Compound 28]
- NUAK1 pIC50 (NUAK1): 8.3
- IC50 (NUAK1): 5.5 nM

Structure (SMILES): CC(C)N1CCN(c2ccc(Nc3ncc4ccn(C5CCCC5)c4n3)cc2)CC1 [Compound 8]
- ligand efficiency (NUAK1): 0.39
- NUAK1 pIC50 (NUAK1): 8.3
- IC50 (NUAK1): 4.57 nM
- inhibition at 1 µM (CDK2-Cyclin A): 84%

Structure (SMILES): CN1CCN(c2ccc(Nc3ncc4cc(C#N)c(=O)n(C5CCCC5)c4n3)cc2)CC1 [Compound 3, Narazaciclib, reference compound]
- efflux ratio at 1 h, 10 µM (MDR1 (P-gp)): 5.6
- Papp at 60 min, 10 µM (MDR1 (P-gp)): 1.98 ×10⁻⁶ cm/s
- fraction unbound at 5 h, 1 µM (Brain protein binding): 0.012
- ligand efficiency (NUAK1): 0.33
- NUAK1 pIC50 (NUAK1): 7.58
- Kp uu at 0.5 h ([1]; male, CD-1, mouse, ip): 0.29
- Kp at 0.5 h ([1]; male, CD-1, mouse, ip): 1.9
- concentration at 30 min ([1]; male, CD-1, mouse, brain, ip): 1160 ng/mL
- concentration at 2 h ([1]; male, CD-1, mouse, brain, ip): 181 ng/mL
- AUCinf [1]: 897 ng·h/mL
- Plasma t1/2 [1]: 54 min

Structure (SMILES): CC(C)N1CCN(c2ccc(Nc3ncc4ccn(CC5CCOC(C)(C)C5)c4n3)cc2)CC1 (stereo not shown) [Compound 26]
- NUAK1 pIC50 (NUAK1): 8.6
- IC50 (NUAK1): 2.75 nM

Structure (SMILES): CN1C2CC1CN(c1ccc(Nc3ncc4cc(C#N)c(=O)n(C5CCCC5)c4n3)cc1)C2 [Compound 10]
- efflux ratio at 1 h, 10 µM (MDR1 (P-gp)): 50
- efflux ratio at 60 min, 10 µM (MDR1 (P-gp)): 49.5
- Papp at 60 min, 10 µM (MDR1 (P-gp)): 1.24 ×10⁻⁶ cm/s
- fraction unbound at 5 h, 1 µM (Plasma protein binding): 0.019
- fraction unbound at 5 h, 1 µM (Brain protein binding): 0.01
- concentration at 30 min (in vivo): 293 ng/mL
- concentration at 2 h (in vivo): 146 ng/mL
- NUAK1 pIC50 (NUAK1): 7.8
- IC50 (NUAK1): 14.8 nM
- inhibition at 1 µM (CDK2-Cyclin A): 94%
- Kp uu at 0.5 h ([1]; male, CD-1, mouse, ip): 0.37
- Kp at 0.5 h ([1]; male, CD-1, mouse, ip): 0.7
- AUCinf [1]: 1131 ng·h/mL
- Plasma t1/2 [1]: 66 min

Structure (SMILES): Cc1cc(=O)n(C(C)C)c2nc(Nc3ccc(N4CC5CC(C4)N5C)cc3)ncc12 [Compound 20]
- NUAK1 pIC50 (NUAK1): 7.68 and 7.7
- inhibition at 1 µM (CDK2-Cyclin A): 17%

Structure (SMILES): CC(C)N1CCN(c2ccc(Nc3ncc4c(n3)N(C3CCCC3)C(=O)C4)cc2)CC1 [Compound 7]
- ligand efficiency (NUAK1): 0.38
- NUAK1 pIC50 (NUAK1): 8.38 and 8.4
- inhibition at 1 µM (CDK2-Cyclin A): 32%
